Measurements taken from patent US12221459B2, “Cancer treatment with (2,2-bishydroxymethyl) methylenecyclopropane nucleotides” (MEDIVIR AB, priority 2018, dated 2025).
Read-outs that look alike come from different tables or passages of the source.

Assays:
[1] = tested on: EOL-1 (human); assay: Leukemia cell line activity assay (Cell Counting Kit-8, 5 days), EOL-1; conditions: read-out: EOL.1 CC50
Procedure: (§1) Compounds of the invention were evaluated for activity against the leukemia cell lines THP-1, EOL-1 and MV4-11, using the following assay:
(§2) Test compounds were made up to 10 mM stock solution in DMSO
(§3) Leukemia cells (THP-1, EOL-1 and MV4-11) were grown in a cell culture flask 75 cm^2 with approximately 100 ml complete cell medium. The cells were counted using a Scepter-hand held automated cell counter, using 60 μm sensors (Millipore) and suspended in complete cell medium to 2×10^5 cells. 100 μl of the cell suspension were seeded to all wells (2×10^4 cells/well).
(§4) The compounds were tested in twelve concentrations, 10-fold serial dilutions, 50 μM-5×10^−10 μM.
(§5) 100 μl from a compound dilution plate were transferred to the cell assay plate=200 μl/well total volume and incubated for 5 days, at 37° C., 5% CO2 incubator.
(§6) After 5 days, 10l of KIT-8 was added and the culture was incubated for 3-4 hours, at 37° C., 5% CO2 incubator.
(§7) Plate were read in the spectrophotometer at wavelength 450 nm with a reference filter of 620 nm.
(§8) CC50 values are calculated by plotting the degree of inhibition (compared to the vehicle ctrl) against the logarithm of the compound concentration. Result values in the dilution series are fitted to a 4-parameter sigmoidal dose-response curve described by the expression: F(x)=D+(A−D)/(1+(x/C)^B) where: • A=Minimum • B=Slope. • C=Inflection point. The inflection point is defined as the point on the curve where the curvature changes direction or signs. • D=Maximum • F=fraction inhibition

[2] = tested on: MV4-11 cells, human B-myelomonocytic leukemia; assay: Leukemia cell line activity assay (Cell Counting Kit-8, 5 days), MV4-11
Procedure: as §1, §2, §3, §4, §5, §6, §7, §8

[3] = tested on: THP-1 (human acute monocytic leukemia); assay: Leukemia cell line activity assay (Cell Counting Kit-8, 5 days), THP-1
Procedure: as §1, §2, §3, §4, §5, §6, §7, §8

[4] = read-out: MV4-11 CC50, MV4-11 cells, 5 days incubation
[5] = read-out: THP-1 CC50, THP-1 cells, 5 days incubation
[6] = Homo sapiens, MV4-11, 120 h, read-out: MV4-11 CC50, MV4-11 cells, 5 days incubation
[7] = Homo sapiens, THP-1, 120 h, read-out: THP-1 CC50, THP-1 cells, 5 days incubation

| Molecule | CC50 ([1]; Homo sapiens, EOL1, 120 h) [nM] | CC50 [2, 6] [nM] | CC50 [3, 7] [nM] | also measured |
| --- | --- | --- | --- | --- |
| CCC(CC)COC(=O)[C@H](CC(C)C)N[P@](=O)(OCC1(COC(=O)C(C)C)C/C1=C/n1ccc(N)nc1=O)Oc1ccccc1 (stereo partly drawn) [Example 34-2, 2-ethylbutyl((S)-(((Z)-2-((4-amino-2-oxopyrimidin-1(2H)-yl)methylene)-1-((isobutyryloxy)methyl)cyclopropyl)methoxy)(phenoxy)phosphoryl)-L-leucinate] | – | – | – | CC50 ([1]; EOL-1 cells, 5 days incubation): 170 nM; CC50 [2, 4]: 440 nM; CC50 [3, 5]: 340 nM |
| CCCC(=O)OCC1(CO[P@@](=O)(N[C@@H](C)C(=O)O[C@@H](C)CCC)Oc2ccccc2)C/C1=C/n1cnc2c(=O)[nH]c(N)nc21 (stereo partly drawn) [Example 30-1, ((Z)-2-((2-amino-6-oxo-1,6-dihydro-9H-purin-9-yl)methylene)-1-((((S)-(((S)-1-oxo-1-(((S)-pentan-2-yl)ox)propan-2-yl)amino)(phenoxy)phosphoryl)oxy)methyl)cyclopropyl)methyl butyrate] | 940 | 430 | 460 | – |
| CCC(CC)COC(=O)[C@H](Cc1ccccc1)N[P@](=O)(OCC1(COC(=O)[C@@H](N)C(C)C)C/C1=C/n1cnc2c(=O)[nH]c(N)nc21)Oc1ccccc1 (stereo partly drawn) [Example 23, ((Z)-2-((2-amino-6-oxo-1,6-dihydro-9H-purin-9-yl)methylene)-1-((((S)-(((S)-1-(2-ethylbutoxy)-1-oxo-3-phenylpropan-2-yl)amino)(phenoxy)phosphoryl)oxy)methyl)cyclopropyl)methyl L-valinate] | – | 850 | 2400 | – |
| CCCC(CCC)COC(=O)[C@H](C)N[P@](=O)(OC[C@@]1(COC(C)=O)C/C1=C/n1cnc2c(=O)[nH]c(N)nc21)Oc1ccccc1 [Example 13-1, (S)-2-propylpentyl 2-(((S)-(((S,Z)-1-(acetoxymethyl)-2-((2-amino-6-oxo-1H-purin-9(6H)-yl)methylene)cyclopropyl)methoxy)(phenoxy)phosphoryl)amino)propanoate] | – | 1100 | 870 | – |
| CCCC(CCC)COC(=O)[C@H](C)N[P@](=O)(OC[C@@]1(COC(=O)[C@@H](N)C(C)C)C/C1=C/n1cnc2c(=O)[nH]c(N)nc21)Oc1ccccc1 [Example 1f-1, (S)-((S,Z)-2-((2-Amino-6-oxo-1H-purin-9(6H)-yl)methylene)-1-((((S)-(((S)-1-oxo-1-((2-propylpentyl)oxy)propan-2-yl)amino)(phenoxy)phosphoryl)oxy)methyl)cyclopropyl)methyl 2-amino-3-methylbutanoate] | 120 | 460 | 670 | – |
| CCCC(=O)OC[C@]1(CO[P@@](=O)(N[C@@H](C)C(=O)OCC(CCC)CCC)Oc2ccccc2)C/C1=C/n1cnc2c(=O)[nH]c(N)nc21 [Example 11-1, ((S,Z)-2-((2-Amino-6-oxo-1H-purin-9(6H)-yl)methylene)-1-((((S)-(((S)-1-oxo-1-((2-propylpentyl)oxy)propan-2-yl)amino)(phenoxy)phosphoryl)oxy)methyl)cyclopropyl)methyl butyrate] | 140 | 71 | 190 | – |
| CCC(CC)COC(=O)[C@H](CC(C)C)N[P@](=O)(OCC1(COC(=O)C(C)C)C/C1=C/n1cnc2c(=O)[nH]c(N)nc21)Oc1ccccc1 (single isomer, unassigned) [Example 21-2] | – | 510 | 390 | – |
| CCC(CC)COC(=O)[C@H](Cc1ccccc1)N[P@](=O)(OCC1(COC(=O)C(C)C)C/C1=C/n1cnc2c(=O)[nH]c(N)nc21)Oc1ccccc1 (single isomer, unassigned) [Example 20-2] | 3600 | 380 | 900 | – |
| CCCC(=O)OCC1(CO[P@@](=O)(N[C@@H](C)C(=O)O[C@@H](C)CCC)Oc2ccccc2)C/C1=C/n1ccc(N)nc1=O (single isomer, unassigned) [Example 29-1] | – | 1200 | 710 | – |
| CCCC(=O)OC[C@]1(CO[P@@](=O)(N[C@@H](C)C(=O)O[C@@H](C)CCC)Oc2ccc(Br)cc2)C/C1=C/n1cnc2c(=O)[nH]c(N)nc21 [Example 12-1, ((S,Z)-2-((2-Amino-6-oxo-1H-purin-9(6H)-yl)methylene)-1-((((S)-(4-bromophenoxy)(((S)-1-oxo-1-((S)-pentan-2-yloxy)propan-2-yl)amino)phosphoryl)oxy)methyl)cyclopropyl)methyl butyrate] | 170 | – | 290 | – |
| (S)-(S)-Pentan-2-yl 2-(((S)-(((S,Z)-1-(acetoxymethyl)-2-((2-amino-6-oxo-1H-purin-9(6H)-yl)methylene)cyclopropyl)methoxy)(4-bromophenoxy)phosphoryl)amino) [Example 8-1] | – | – | – | CC50 ([1]; EOL-1 cells, 5 days incubation): 340 nM; CC50 [3, 5]: 260 nM |
| CCCCCCCCCCCCCCCCCC(=O)OCC1(CO[P@@](=O)(N[C@@H](C)C(=O)O[C@@H](C)CCC)Oc2ccccc2)C/C1=C/n1cnc2c(=O)[nH]c(N)nc21 (stereo partly drawn) [Example 24, ((Z)-2-((2-amino-6-oxo-1,6-dihydro-9H-purin-9-yl)methylene)-1-((((S)-(((S)-1-oxo-1-(((S)-pentan-2-yl)oxy)propan-2-yl)amino)(phenoxy)phosphoryl)oxy)methyl)cyclopropyl)methyl stearate] | – | 2100 | 3800 | – |
| Nc1nc2c(ncn2/C=C2/CC2(CO)CO)c(=O)[nH]1 [Cyclopropavir, 2,2-bis-(hydroxymethyl) cyclopropylidene methyl guanine, reference compound] | 11000 | – | – | CC50 ([2]; Homo sapiens, MV4-11, 120 h, read-out: MV4-11 CC50): 11000 nM; CC50 ([3]; Homo sapiens, THP-1, 120 h, read-out: THP-1 CC50): 5100 nM |
| CCCC(CCC)COC(=O)[C@H](C)N[P@](=O)(OCC1(COC(=O)C(C)C)C/C1=C/n1ccc(N)nc1=O)Oc1ccccc1 (single isomer, unassigned) [Example 16-1] | – | 190 | 350 | – |
| COC(=O)[C@H](CC(C)C)N[P@](=O)(OCC1(COC(=O)C(C)C)C/C1=C/n1cnc2c(=O)[nH]c(N)nc21)Oc1ccccc1 (single isomer, unassigned) [Example 18-2] | – | 800 | 1800 | – |
| CCC[C@H](C)OC(=O)[C@H](C)N[P@](=O)(OC[C@@]1(COC(=O)[C@@H](N)C(C)C)C/C1=C/n1cnc2c(=O)[nH]c(N)nc21)Oc1ccccc1 [Example 15-1, (S)-((S,Z)-2-((2-amino-6-oxo-1H-purin-9(6H)-yl)methylene)-1-((((S)-(((S)-1-oxo-1-((S)-pentan-2-yloxy)propan-2-yl)amino)(phenoxy)phosphoryl)oxy)methyl)cyclopropyl)methyl 2-amino-3-methylbutanoate] | – | – | 1000 | – |
| CCCC(=O)OCC1(CO[P@@](=O)(N[C@@H](C)C(=O)OCC(CCC)CCC)Oc2ccccc2)C/C1=C/n1ccc(N)nc1=O (single isomer, unassigned) [Example 32-1] | 59 | – | – | CC50 [2, 4]: 180 nM; CC50 [3, 5]: 190 nM |
| CCCC(CCC)COC(=O)[C@H](C)N[P@](=O)(OCC1(COC(=O)C(C)C)C/C1=C/n1cc(F)c(N)nc1=O)Oc1ccccc1 (single isomer, unassigned) [Example 39-2] | – | 2600 | 600 | – |
| CCC(CC)COC(=O)[C@H](Cc1ccccc1)N[P@](=O)(OCC1(COC(=O)C(C)C)C/C1=C/n1ccc(N)nc1=O)Oc1ccccc1 (stereo partly drawn) [Example 25-2, 2-ethylbutyl((S)-(((Z)-2-((4-amino-2-oxopyrimidin-1 (2H)-yl)methylene)-1-((isobutyryloxy)methyl)cyclopropyl)methoxy)(phenoxy)phosphoryl)-L-phenylalaninate] | – | – | – | CC50 ([1]; EOL-1 cells, 5 days incubation): 100 nM; CC50 [2, 4]: 86 nM; CC50 [3, 5]: 410 nM |
| CCCC(CCC)COC(=O)[C@H](C)N[P@](=O)(OCC1(COC(=O)C(C)(C)C)C/C1=C/n1cnc2c(=O)[nH]c(N)nc21)Oc1ccccc1 (stereo partly drawn) [Example 38, ((Z)-2-((2-amino-6-oxo-1,6-dihydro-9H-purin-9-yl)methylene)-1-((((S)-(((S)-1-oxo-1-((2-propylpentyl)oxy)propan-2-yl)amino)(phenoxy)phosphoryl)ox)methyl)cyclopropyl)methyl pivalate] | 210 | 310 | 190 | – |
| CCC[C@H](C)OC(=O)[C@H](C)N[P@](=O)(OC[C@@]1(COC(=O)C(C)C)C/C1=C/n1cnc2c(=O)[nH]c(N)nc21)Oc1ccccc1 [Example 6-2, ((S,Z)-2-((2-amino-6-oxo-1H-purin-9(6H)-yl)methylene)-1-((((S)-(((S)-1-oxo-1-((S)-pentan-2-yloxy)propan-2-yl)amino)(phenoxy)phosphoryl)oxy)methyl)cyclopropyl)methyl isobutyrate] | 190 | 430 | 740 | – |
| CCCC(=O)OCC1(CO[P@@](=O)(N[C@@H](C)C(=O)OCC(CCC)CCC)Oc2ccccc2)C/C1=C/n1ccc(N)nc1=O (single isomer, unassigned) [Example 45-2] | – | – | – | CC50 [2, 4]: 2200 nM; CC50 [3, 5]: 2000 nM |
| CCC(CC)COC(=O)C[C@H](N[P@](=O)(OCC1(COC(=O)C(C)C)C/C1=C/n1cnc2c(=O)[nH]c(N)nc21)Oc1ccccc1)C(=O)OCC(CC)CC (single isomer, unassigned) [Example 35-1] | – | 180 | 290 | – |
| CCC[C@H](C)OC(=O)[C@H](C)N[P@](=O)(OCC1(COC(=O)C(C)C)C/C1=C/n1ccc(N)nc1=O)Oc1ccccc1 (single isomer, unassigned) [Example 28-2] | – | 1000 | 880 | – |
| CCCC(=O)OCC1(CO[P@@](=O)(N[C@@H](C)C(=O)OCC(CCC)CCC)Oc2ccccc2)C/C1=C/n1cc(F)c(N)nc1=O (stereo partly drawn) [Example 40, ((Z)-2-((4-amino-5-fluoro-2-oxopyrimidin-1(2H)-yl)methylene)-1-((((S)-(((S)-1-oxo-1-((2-propylpentyl)oxy)propan-2-yl)amino)(phenoxy)phosphoryl)oxy)methyl)cyclopropyl)methyl butyrate] | – | 3100 | – | – |
